Source: US20220324865A1 (Bayer Aktiengesellschaft, priority 2018, published 2022)
Where a name gives a salt, the structure may show the parent alone.

target: T1, human EP3 receptor (Homo sapiens, UniProt P43115); assay: Cellular in vitro assay for determining EP3 receptor activity (human EP3 cell line, sulprostone-stimulated calcium luminescence); type: cell-based; conditions: CHO cells expressing human EP3 and mitochondrial Clytin; antagonist mode, sulprostone at EC50; read-out: EP3 CHO mtCLY ANTAG IC50
T1 construct: expressed in transfected cells; host or cells: CHO K1 (Chinese Hamster Ovary), stably co-transfected with Galpha16 and mitochondrial clytin
T1 sequence (P43115 1-390): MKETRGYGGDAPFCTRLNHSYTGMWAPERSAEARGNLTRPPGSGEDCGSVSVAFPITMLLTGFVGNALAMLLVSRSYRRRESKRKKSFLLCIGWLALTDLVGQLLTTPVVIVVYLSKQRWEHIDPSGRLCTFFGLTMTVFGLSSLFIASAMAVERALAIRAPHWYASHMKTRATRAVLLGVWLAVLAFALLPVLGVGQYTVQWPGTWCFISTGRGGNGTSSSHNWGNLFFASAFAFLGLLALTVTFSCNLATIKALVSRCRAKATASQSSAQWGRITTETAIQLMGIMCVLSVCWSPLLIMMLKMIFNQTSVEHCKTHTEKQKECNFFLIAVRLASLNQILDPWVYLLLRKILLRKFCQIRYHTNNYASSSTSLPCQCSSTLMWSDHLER
In short: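 CHO K1 cells stably expressing human EP3 with Gα16 and mitochondrial Clytin, loaded overnight with coelenterazine. Compounds added 10 min before sulprostone at its EC50; antagonism read immediately as reduced calcium-driven luminescence, quadruplicate points.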

Compared with `O=C(NC(c1ccc(F)cc1)C1(O)CC1)c1nn2cc(-c3ccc(Cl)c(Cl)c3)[nH]c(=O)c2c1C1CC1` (single isomer, unassigned) [6-423], `Cc1cc(-c2cn3nc(C(=O)NC(c4ccc(F)cc4)C4(O)CC4)c(C4CC4)c3c(=O)[nH]2)ccc1F` (racemic) [6-650] is 2.5-fold higher in IC50: 0.62 nM for the first, 1.55 nM for the second.

`Cc1nc(-c2cn3nc(C(=O)N[C@@H](c4ccc(F)cc4)C(C)(C)O)c(C4CC4)c3c(=O)[nH]2)ccc1Cl` [6-590] and `Cc1ccc(-c2cn3nc(C(=O)N[C@@H](c4ccc(F)cc4)C(C)(C)O)c(C4CC4)c3c(=O)[nH]2)cc1C` [6-440] are within 1.5-fold of each other in IC50: 1.2 nM for the first, 1.05 nM for the second.

Compared with `Cc1cccc2ncc(-c3cn4nc(C(=O)N[C@@H](c5ccc(F)cc5)C(C)(C)O)c(C(C)C)c4c(=O)[nH]3)cc12` [Example 1-89, N-[(1S)-1-(4-Fluorophenyl)-2-hydroxy-2-methylpropyl]-6-(5-methylquinolin-3-yl)-4-oxo-3-(propan-2-yl)-4,5-dihydropyrazolo[1,5-a]pyrazine-2-carboxamide], `COc1ccccc1C(C)NC(=O)c1nn2cc(-c3cnc4cccc(C)c4c3)[nH]c(=O)c2c1C(C)C` (centres unmarked) [Example 4-4, 3-Isopropyl-N-[1-(2-methoxyphenyl)ethyl]-6-(5-methyl-3-quinolyl)-4-oxo-5H-pyrazolo[1,5-a]pyrazine-2-carboxamide] is 2.4-fold higher in IC50: 1.03 nM for the first, 2.45 nM for the second.

First: Cc1ccc(-c2cn3nc(C(=O)NCC(N)C(F)(F)F)c(C4CC4)c3c(=O)[nH]2)cc1F (single isomer, unassigned) [6-397]
Second: Cc1cc(-c2cn3nc(C(=O)NCC(O)C(F)(F)F)c(C4CC4)c3c(=O)[nH]2)ccc1F (single isomer, unassigned) [6-655]
The IC50 of the first is 2.7-fold lower: 3.45 nM for the first, 9.35 nM for the second. The first is the more potent here.

Going from `CC(NC(=O)c1nn2cc(-c3ccc4ccccc4c3)[nH]c(=O)c2c1C(F)(F)F)c1ccc(OCC(F)(F)F)cn1` (centres unmarked) [Example 1-30, 6-(2-Naphthyl)-4-oxo-N-[1-[5-(2,2,2-trifluoroethoxy)-2-pyridyl]ethyl]-3-(trifluoromethyl)-5H-pyrazolo[1,5-a]pyrazine-2-carboxamide trifluoroacetic acid salt] to `C[C@@H](CO)NC(=O)c1nn2cc(-c3ccc4ccccc4c3)[nH]c(=O)c2c1C(F)(F)F` [6-526], the IC50 rises from 4.05 nM to 9.43 nM (2.3-fold).

`C[C@@H](NC(=O)c1nn2cc(-c3ccc4ccccc4c3)[nH]c(=O)c2c1C#N)c1ccc(F)cc1` [6-68] and `C[C@H](NC(=O)c1cc2c(=O)[nH]c(-c3ccc4ccccc4c3)cn2n1)c1ccccc1` [Example 2-34, 6-(2-Naphthyl)-4-oxo-N-[(7S)-1-phenylethyl]-4,5-dihydropyrazolo[1,5-a]pyrazine-2-carboxamide] are within 1.5-fold of each other in IC50: 2.35 nM for the first, 1.9 nM for the second.

Going from `O=C(NCCc1ccccc1)c1cc2c(=O)[nH]c(-c3ccc4ccccc4c3)cn2n1` [6-14] to `COc1ccc(CNC(=O)c2cc3c(=O)[nH]c(-c4ccc5ccccc5c4)cn3n2)cc1OC` [Example 1-103, N-(3,4-Dimethoxybenzyl)-6-(2-naphthyl)-4-oxo-4,5-dihydropyrazolo[1,5-a]pyrazin-2-carboxamide], the IC50 falls from 8.25 nM to 1.87 nM (4.4-fold).

First: CC[C@@H](C)NC(=O)c1nn2cc(-c3ccc(C)c(Cl)c3)[nH]c(=O)c2c1C [Example 1-149, N-[(2R)-Butan-2-yl]-6-(3-chloro-4-methylphenyl)-3-methyl-4-oxo-4,5-dihydropyrazolo[1,5-a]-pyrazine-2-carboxamide]
Second: Cc1ccc(-c2cn3nc(C(=O)NCC(O)C(F)(F)F)c(C)c3c(=O)[nH]2)cc1F (single isomer, unassigned) [6-411]
The IC50 of the first is 14-fold lower: 2.33 nM for the first, 32.5 nM for the second. The first is the more potent here.

First: Cc1cccc2ncc(-c3cn4nc(C(=O)NC5Cc6ccccc6C5)c(C(C)C)c4c(=O)[nH]3)cc12 [Example 4-38, N-(2,3-Dihydro-1H-inden-2-yl)-6-(5-methylquinolin-3-yl)-4-oxo-3-(propan-2-yl)-4,5-dihydropyrazolo[1,5-a]pyrazine-2-carboxamide]
Second: Cc1cccc2ncc(-c3cn4nc(C(=O)N[C@H]5CCCc6ccccc65)c(C(C)C)c4c(=O)[nH]3)cc12 [Example 4-58, 6-(5-Methylquinolin-3-yl)-4-oxo-3-(propan-2-yl)-N-[(7S)-1,2,3,4-tetrahydronaphthalen-1-yl]-4,5-dihydropyrazolo[1,5-a]pyrazine-2-carboxamide]
The IC50 of the first is 3.3-fold lower: 1.3 nM for the first, 4.3 nM for the second.

First: CN1CCC(NC(=O)c2nn3cc(-c4ccc5ccccc5c4)[nH]c(=O)c3c2C(F)(F)F)(c2ccc(F)cc2)CC1 [Example 1-116, N-[4-(4-Fluorophenyl)-1-methylpiperidin-4-yl]-6-(naphthalen-2-yl)-4-oxo-3-(trifluoromethyl)-4,5-dihydropyrazolo[1,5-a]pyrazine-2-carboxamide]
Second: CCCN1CC(NC(=O)c2nn3cc(-c4ccc5ccccc5c4)[nH]c(=O)c3c2C(F)(F)F)(c2ccc(F)cc2)C1 [Example 1-127, N-[3-(4-Fluorophenyl)-1-propylazetidin-3-yl]-6-(naphthalen-2-yl)-4-oxo-3-(trifluoromethyl)-4,5-dihydropyrazolo[1,5-a]pyrazine-2-carboxamide]
The IC50 of the first is 4.4-fold higher: 9.55 nM for the first, 2.15 nM for the second. The second is the more potent here.

`Cc1ccc(-c2cn3nc(C(=O)N[C@@H](C)C4CC4)c(C4CC(F)(F)C4)c3c(=O)[nH]2)cc1Cl` [6-560] and `C[C@H](NC(=O)c1nn2cc(-c3ccc(Cl)c(F)c3)[nH]c(=O)c2c1C1CC(F)(F)C1)C1CC1` [6-556] are within 1.5-fold of each other in IC50: 1.6 nM for the first, 2.15 nM for the second.

Going from `Cc1ccc(-c2cn3nc(C(=O)N[C@@H](c4ccc(F)cc4)C(C)(C)O)c(C4CC4)c3c(=O)[nH]2)c(F)c1F` [6-596] to `Cc1ccc(-c2cn3nc(C(=O)N[C@@H](c4ccc(F)cc4)[C@H](O)C(F)(F)F)c(C4CC4)c3c(=O)[nH]2)cc1Cl` [6-272], the IC50 falls from 2.8 nM to 1.22 nM (2.3-fold). The second is the more potent here.

Going from `COc1ccc(C(CCO)NC(=O)c2cc3c(=O)[nH]c(-c4ccc5c(c4)OCCO5)cn3n2)cc1` (centres unmarked) [Example 5-3, 6-(2,3-Dihydro-1,4-benzodioxin-6-yl)-N-[3-hydroxy-1-(4-methoxyphenyl)propyl]-4-oxo-5H-pyrazolo[1,5-a]pyrazine-2-carboxamide] to `COC[C@@H](NC(=O)c1cc2c(=O)[nH]c(-c3ccc4c(c3)OCCO4)cn2n1)c1ccccc1` [6-49], the IC50 falls from 2.45 nM to 1.6 nM (1.5-fold). The second is the more potent here.

First: Cc1c(C(=O)NCc2cccc(CN3CCCC3)c2)nn2c(C)c(-c3ccc4ccccc4c3)[nH]c(=O)c12 [Example 3-36, 3,7-Dimethyl-6-(naphthalen-2-yl)-4-oxo-N-({3-[(pyrrolidin-1-yl)methyl]phenyl}methyl)-4,5-dihydropyrazolo[1,5-a]pyrazine-2-carboxamide]
Second: Cc1c(C(=O)NCc2ccnn2C)nn2c(C)c(-c3ccc4ccccc4c3)[nH]c(=O)c12 [Example 3-11, 3,7-Dimethyl-N-[(1-methyl-1H-pyrazol-5-yl)methyl]-6-(naphthalen-2-yl)-4-oxo-4,5-dihydropyrazolo[1,5-a]pyrazine-2-carboxamide]
The IC50 of the first is 3.2-fold higher: 6.55 nM for the first, 2.05 nM for the second.

Compared with `Cc1c(C(=O)N[C@H](CO)c2ccccc2)nn2c(C)c(-c3ccc4ccccc4c3)[nH]c(=O)c12` [Example 3-2, N-[(1S)-2-Hydroxy-1-phenylethyl]-3,7-dimethyl-6-(naphthalen-2-yl)-4-oxo-4,5-dihydropyrazolo[1,5-a]pyrazine-2-carboxamide], `Cc1c(C(=O)NC2(c3ccc(C#N)cc3)CC2)nn2c(C)c(-c3ccc4ccccc4c3)[nH]c(=O)c12` [Example 3-27, N-[1-(4-Cyanophenyl)cyclopropyl]-3,7-dimethyl-6-(naphthalen-2-yl)-4-oxo-4,5-dihydropyrazolo[1,5-a]pyrazine-2-carboxamide] is 1.8-fold higher in IC50: 1.2 nM for the first, 2.1 nM for the second.

Going from `Cc1cc(-c2cn3nc(C(=O)NC4(c5ccc(F)cc5)CN(CC(F)(F)F)C4)c(C4CC4)c3c(=O)[nH]2)ccc1Cl` [6-344] to `Cc1cc(-c2cn3nc(C(=O)N[C@H](CCO)c4ccc(F)cc4)c(C4CC4)c3c(=O)[nH]2)ccc1Cl` [6-343], the IC50 falls from 0.99 nM to 0.28 nM (3.5-fold). The second is the more potent here.

Going from `CC(C)(O)[C@@H](NC(=O)c1cc2c(=O)[nH]c(-c3ccc(Cl)c(Cl)c3)cn2n1)c1ccc(F)cc1` [6-636] to `C[C@@H](NC(=O)c1cc2c(=O)[nH]c(-c3ccc4c(c3)ncn4C)cn2n1)c1ccc(F)cc1` [6-660], the IC50 falls from 7.63 nM to 3 nM (2.5-fold).

First: Cc1ccc(-c2cn3nc(C(=O)NC(C)c4ccc(O)cc4)cc3c(=O)[nH]2)cc1C (single isomer, unassigned) [6-348]
Second: CC(C)(C)OC(=O)NCC(NC(=O)c1cc2c(=O)[nH]c(-c3ccc4cccnc4c3)cn2n1)c1ccc(F)cc1 (centres unmarked) [6-29]
The IC50 of the first is 1.6-fold higher: 3.55 nM for the first, 2.27 nM for the second. The second is the more potent here.

`Cc1ccc(-c2cn3nc(C(=O)NC4(C)CCC4)c(C(F)(F)F)c3c(=O)[nH]2)cc1F` [6-146] and `Cc1cc(-c2cn3nc(C(=O)NCC(O)(C(F)(F)F)C(F)(F)F)c(C4CC4)c3c(=O)[nH]2)ccc1F` [6-658] are within 1.5-fold of each other in IC50: 10 nM for the first, 7 nM for the second.

First: Cc1cccc2ncc(-c3cn4nc(C(=O)NC5(C)CCS(=O)(=O)C5)c(C(C)C)c4c(=O)[nH]3)cc12 (centres unmarked) [Example 4-17, 3-Isopropyl-N-(3-methyl-1,1-dioxothiolan-3-yl)-6-(5-methyl-3-quinolyl)-4-oxo-5H-pyrazolo[1,5-a]pyrazine-2-carboxamide]
Second: O=C(NC1CCN(CC(F)F)C1)c1nn2cc(-c3ccc4ccccc4c3)[nH]c(=O)c2c1C(F)(F)F (single isomer, unassigned) [6-519]
The IC50 of the first is 2.8-fold lower: 2.45 nM for the first, 6.9 nM for the second. The first is the more potent here.

With `CCN(CCO)CC(NC(=O)c1nn2cc(-c3ccc4ccccc4c3)[nH]c(=O)c2c1C1CC1)c1ccccc1` (centres unmarked) [Example 1-26, 3-Cyclopropyl-N-[2-[ethyl(2-hydroxyethyl)amino]-1-phenylethyl]-6-(2-naphthyl)-4-oxo-5H-pyrazolo[1,5-a]pyrazine-2-carboxamide] the IC50 was 1.4 nM.
